# From ChEMBL document CHEMBL1629430, “2'-deoxy-2'-α-fluoro-2'-β-C-methyl 3',5'-cyclic phosphate nucleotide prodrug analogs as inhibitors of HCV NS5B polymerase: discovery of PSI-352938” (Bioorg Med Chem Lett, 2010)
# Key:
# Hepatitis C virus [1] = experiment: Antiviral activity against Hepatitis C virus -infected in human HuH7 cells; assay type: functional, Hepacivirus hominis, Huh-7
# [2] = Cytotoxicity against human HuH7 cells; assay type: cell-based, Huh-7
# [3] = Mitochondrial toxicity in human HepG2 cells; assay type: cell-based
# Rattus norvegicus [4] = experiment: Cmax in rat liver assessed as 2'-Deoxy-2'-alpha-F-2'-beta-C-methyl guanosine triphosphate level at 50 mg/kg, po; assay type: ADME, organism-based; set-up: dose 50 mg/kg, route oral; conditions: in vivo
# [5] = Cytotoxicity against human CEM cells; assay type: cell-based; conditions: CEM cells (CCRF-CEM)
# Rattus norvegicus [6] = experiment: AUC (0 to 24 hrs) in rat liver assessed as 2'-Deoxy-2'-alpha-F-2'-beta-C-methyl guanosine triphosphate level at 50 mg/kg, po; assay type: ADME, organism-based; set-up: time < 24 hr, dose 50 mg/kg, route oral; conditions: in vivo
# Hepatitis C virus [7] = experiment: Antiviral activity against Hepatitis C virus harboring NS5B S282T mutant -infected in human HuH7 cells; assay type: functional, Hepacivirus hominis, Huh-7
# [8] = Half life in human plasma; assay type: ADME, cell-free; conditions: read-out: Stability (converted)
# [9] = Cytotoxicity against human HepG2 cells; assay type: cell-based
# [10] = Half life of the compound in simulated gastrointestinal fluid; assay type: physicochemical; conditions: read-out: Stability (converted)
# [11] = Drug level in Hepatitis C virus -infected human HuH7 cells assessed as cellular triphosphate level at 100 uM after 72 hrs by HPLC method; assay type: ADME, cell-based; conditions: huh-7, 72 h
# Liver = experiment: AUC (0 to 24 hrs) in rat liver; assay type: ADME, tissue-based; set-up: time < 24 hr; conditions: in vivo
# [12] = Cytotoxicity against human BxPC3 cells; assay type: cell-based, BXPC-3
# [13] = Mitochondrial toxicity in human CEM cells; assay type: cell-based; conditions: CEM cells (CCRF-CEM)
# Hepatitis C virus [14] = experiment: Antiviral activity against wild-type Hepatitis C virus -infected in human HuH7 cells; assay type: functional, Hepacivirus hominis, Huh-7
# [15] = Half life in human liver S9 fraction; assay type: ADME, subcellular; conditions: read-out: Stability (converted)
# [16] = Half life of the compound in simulated intestinal fluid; assay type: physicochemical; conditions: for half-life: simulated intestinal fluid, read-out: Stability
# Hepatocyte = experiment: Drug level in human hepatocytes assessed as cellular triphosphate level at 100 uM after 72 hrs by HPLC method; assay type: ADME, cell-based
# [17] = target: RNA-directed RNA polymerase (Hepacivirus hominis, UniProt O39930); experiment: Inhibition of HCV NS5B polymerase
# Sequence of RNA-directed RNA polymerase (O39930 whole entry): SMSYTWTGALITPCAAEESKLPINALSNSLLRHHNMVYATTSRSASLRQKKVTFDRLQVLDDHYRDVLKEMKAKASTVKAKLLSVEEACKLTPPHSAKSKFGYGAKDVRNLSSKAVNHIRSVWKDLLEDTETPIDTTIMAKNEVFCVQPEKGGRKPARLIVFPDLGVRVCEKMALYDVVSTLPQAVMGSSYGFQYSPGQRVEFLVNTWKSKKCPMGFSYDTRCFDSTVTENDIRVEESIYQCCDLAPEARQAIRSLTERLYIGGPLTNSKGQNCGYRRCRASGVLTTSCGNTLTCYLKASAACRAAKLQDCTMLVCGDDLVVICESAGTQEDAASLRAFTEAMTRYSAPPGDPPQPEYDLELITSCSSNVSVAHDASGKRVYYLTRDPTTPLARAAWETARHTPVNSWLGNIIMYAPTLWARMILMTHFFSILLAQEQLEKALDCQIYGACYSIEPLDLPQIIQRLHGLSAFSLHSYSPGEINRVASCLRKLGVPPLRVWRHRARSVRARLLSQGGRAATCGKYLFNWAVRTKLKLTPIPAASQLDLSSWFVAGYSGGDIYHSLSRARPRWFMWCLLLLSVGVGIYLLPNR
compound,measurement,setting,value
CO[P@@]1(=O)OC[C@H]2O[C@@H](n3cnc4c(O)nc(N)nc43)[C@](C)(F)[C@@H]2O1,EC90,"Hepatitis C virus [1]; Hepatitis C virus, Huh-7",11.8 µM
same,CC50,[2],> 65 µM
CCOc1nc(N)nc2c1ncn2[C@@H]1O[C@@H]2COP(=O)(OC)O[C@H]2[C@@]1(C)F (stereo partly drawn),CC50,[3],> 100 µM
same,Cmax,Rattus norvegicus [4],613 ng/g
same,EC90,"Hepatitis C virus [1]; Hepatitis C virus, Huh-7",0.41 µM
same,CC50,[5],> 100 µM
same,AUC,Rattus norvegicus [6],4090 ng·h/g
same,EC90,"Hepatitis C virus [7]; Hepatitis C virus, Huh-7",0.4 µM
same,half-life,[8],8.88 h
same,CC50,[9],95 µM
same,half-life,[10],> 20 h
same,Drug uptake,[11],0.08 mM
same,AUC,Liver,8310 ng·h/g
same,CC50,[12],> 100 µM
same,CC50,[13],> 100 µM
same,CC50,[2],> 30 µM
same,EC90,"Hepatitis C virus [14]; Hepatitis C virus, Huh-7",0.41 µM
same,half-life,[15],> 24 h
same,half-life,[16],> 20 h
same,Drug uptake,Hepatocyte,0.12 mM
CCCOc1nc(N)nc2c1ncn2[C@@H]1O[C@@H]2COP(=O)(OC)O[C@H]2[C@@]1(C)F (stereo partly drawn),EC90,"Hepatitis C virus [1]; Hepatitis C virus, Huh-7",0.83 µM
same,CC50,[2],> 30 µM
COP1(=O)OC[C@H]2O[C@@H](n3cnc4c(OCc5ccccc5)nc(N)nc43)[C@](C)(F)[C@@H]2O1 (stereo partly drawn),EC90,"Hepatitis C virus [1]; Hepatitis C virus, Huh-7",5.05 µM
CCCNc1nc(N)nc2c1ncn2[C@@H]1O[C@@H]2COP(=O)(OC)O[C@H]2[C@@]1(C)F (stereo partly drawn),CC50,[3],14 µM
same,EC90,"Hepatitis C virus [1]; Hepatitis C virus, Huh-7",0.92 µM
same,CC50,[5],> 100 µM
same,EC90,"Hepatitis C virus [7]; Hepatitis C virus, Huh-7",3.08 µM
same,half-life,[8],15.7 h
same,CC50,[9],> 100 µM
same,half-life,[10],4 h
same,CC50,[12],> 100 µM
same,CC50,[13],> 100 µM
same,CC50,[2],> 30 µM
same,EC90,"Hepatitis C virus [14]; Hepatitis C virus, Huh-7",0.92 µM
same,half-life,[15],> 24 h
same,half-life,[16],> 20 h
COP1(=O)OC[C@H]2O[C@@H](n3cnc4c(NC5CCC5)nc(N)nc43)[C@](C)(F)[C@@H]2O1 (stereo partly drawn),EC90,"Hepatitis C virus [1]; Hepatitis C virus, Huh-7",1.56 µM
COP1(=O)OC[C@H]2O[C@@H](n3cnc4c(NC5CCCC5)nc(N)nc43)[C@](C)(F)[C@@H]2O1 (stereo partly drawn),EC90,"Hepatitis C virus [1]; Hepatitis C virus, Huh-7",7.2 µM
COP1(=O)OC[C@H]2O[C@@H](n3cnc4c(N5CCC5)nc(N)nc43)[C@](C)(F)[C@@H]2O1 (stereo partly drawn),CC50,[3],> 100 µM
same,EC90,"Hepatitis C virus [1]; Hepatitis C virus, Huh-7",0.98 µM
same,CC50,[5],> 100 µM
same,EC90,"Hepatitis C virus [7]; Hepatitis C virus, Huh-7",1.53 µM
same,half-life,[8],8.33 h
same,CC50,[9],> 100 µM
same,half-life,[10],> 20 h
same,CC50,[12],> 100 µM
same,CC50,[13],> 100 µM
same,CC50,[2],> 30 µM
same,EC90,"Hepatitis C virus [14]; Hepatitis C virus, Huh-7",0.98 µM
same,half-life,[15],2.53 h
same,half-life,[16],> 20 h
CCOc1nc(N)nc2c1ncn2[C@@H]1O[C@@H]2COP(=O)(Oc3ccccc3)O[C@H]2[C@@]1(C)F (stereo partly drawn),EC90,"Hepatitis C virus [1]; Hepatitis C virus, Huh-7",1.72 µM
CCO[P@@]1(=O)OC[C@H]2O[C@@H](n3cnc4c(N5CCC5)nc(N)nc43)[C@](C)(F)[C@@H]2O1,EC90,"Hepatitis C virus [1]; Hepatitis C virus, Huh-7",69.2 µM
CC(C)O[P@@]1(=O)OC[C@H]2O[C@@H](n3cnc4c(N5CCC5)nc(N)nc43)[C@](C)(F)[C@@H]2O1,EC90,"Hepatitis C virus [1]; Hepatitis C virus, Huh-7",18.6 µM
C[C@@]1(F)[C@@H]2O[P@@](=O)(OC3CCC3)OC[C@H]2O[C@H]1n1cnc2c(N3CCC3)nc(N)nc21,EC90,"Hepatitis C virus [1]; Hepatitis C virus, Huh-7",7.3 µM
C[C@@]1(F)[C@@H]2O[P@@](=O)(Oc3ccccc3)OC[C@H]2O[C@H]1n1cnc2c(N3CCC3)nc(N)nc21,EC90,"Hepatitis C virus [1]; Hepatitis C virus, Huh-7",7.7 µM
C[C@@]1(F)[C@H](O)[C@@H](CO)O[C@H]1n1cnc2c(O)nc(N)nc21,EC90,"Hepatitis C virus [1]; Hepatitis C virus, Huh-7",69 µM
"CCCCNc1nc(N)nc2c1ncn2[C@@H]1O[C@@H]2COP(=O)(Oc3ccccc3)O[C@H]2[C@@]1(C)F (single isomer, unassigned)",EC90,"Hepatitis C virus [1]; Hepatitis C virus, Huh-7",4.76 µM
"CCCCNc1nc(N)nc2c1ncn2[C@@H]1O[C@@H]2COP(=O)(OCC)O[C@H]2[C@@]1(C)F (single isomer, unassigned)",EC90,"Hepatitis C virus [1]; Hepatitis C virus, Huh-7",48.1 µM
"CCCCNc1nc(N)nc2c1ncn2[C@@H]1O[C@@H]2COP(=O)(OC(C)C)O[C@H]2[C@@]1(C)F (single isomer, unassigned)",EC90,"Hepatitis C virus [1]; Hepatitis C virus, Huh-7",9.28 µM
CCOc1nc(N)nc2c1ncn2[C@@H]1O[C@@H]2CO[P@](=O)(OC(C)C)O[C@H]2[C@@]1(C)F (stereo in doubt; 24a),CC50,[3],> 100 µM
same,EC90,"Hepatitis C virus [1]; Hepatitis C virus, Huh-7",1.37 µM
same,CC50,[5],> 100 µM
same,AUC,Rattus norvegicus [6],41893 ng·h/g
same,EC90,"Hepatitis C virus [7]; Hepatitis C virus, Huh-7",1.61 µM
same,half-life,[8],> 24 h
same,CC50,[9],> 100 µM
same,half-life,[10],> 20 h
same,Drug uptake,[11],0.41 mM
same,AUC,Liver,13234 ng·h/g
same,CC50,[12],> 100 µM
same,CC50,[13],> 100 µM
same,CC50,[2],> 100 µM
same,EC90,"Hepatitis C virus [14]; Hepatitis C virus, Huh-7",1.37 µM
same,half-life,[15],> 24 h
same,half-life,[16],> 20 h
same,Drug uptake,Hepatocyte,0.59 mM
CCOc1nc(N)nc2c1ncn2[C@@H]1O[C@@H]2CO[P@](=O)(OC(C)C)O[C@H]2[C@@]1(C)F (stereo in doubt; 24b),EC90,Hepatitis C virus [1],0.69 µM
same,EC90,Hepatitis C virus [7],0.86 µM
same,EC90,Hepatitis C virus [14],0.69 µM
same,Stability,[16]; simulated gi fluid,18 h
CCCOc1nc(N)nc2c1ncn2[C@@H]1O[C@@H]2CO[P@](=O)(OCCC)O[C@H]2[C@@]1(C)F (stereo in doubt; 26a),EC90,Hepatitis C virus [1],23.8 µM
CCCOc1nc(N)nc2c1ncn2[C@@H]1O[C@@H]2CO[P@](=O)(OCCC)O[C@H]2[C@@]1(C)F (stereo in doubt; 26b),EC90,Hepatitis C virus [1],5.27 µM
same,CC50,[2],> 11 µM
CC(C)C(=O)OC[C@H]1O[C@@H](n2ccc(N)nc2=O)[C@](C)(F)[C@@H]1OC(=O)C(C)C [MERICITABINE],EC90,"Hepatitis C virus [1]; Hepatitis C virus, Huh-7",3.9 µM
same,CC50,[2],> 100 µM
C[C@@]1(F)[C@H](O)[C@@H](COP(=O)(O)OP(=O)(O)OP(=O)(O)O)O[C@H]1n1cnc2c(=O)[nH]c(N)nc21 [PSI-352666],CC50,[2],> 100 µM
same,IC50,[17],5.94 µM
